We go through 2 molecules from patent publication US6924282B2, “Sodium salt of an HIV integrase inhibitor” (Merck & Co., Inc., priority 2001, dated 2005).

The subject of data set [1] is acute HIV infection of T-lymphoid cells. The experiment in a line: assay for the inhibition of acute HIV infection of T-lymphoid cells. It counts as cell-based. The note with it: in accordance with Vacca et al., PNAS 1994, 91: 4096-4100. The text has this:
Compound A is an inhibitor of HIV integrase.

For data set [2], the target named is recombinant integrase (HIV integrase) (Human immunodeficiency virus type 1 group M subtype B, UniProt P04585). The note with it: strand transfer assay of Example 193 of WO 02/30930. The text has this:
The strand transfer assay is described in Example 193 of WO 02/30930.

Data set [3] is described as follows: oral bioavailability and pharmacokinetics in dogs. It counts as in vivo. Conditions: relative to amorphous and crystalline Compound A.
The nature of data set [4]: oral absorption and pharmacokinetics in animal models. Type of data set: in vivo. Conditions: compared to crystalline Compound A per se. The text has this: The present invention is directed to a pharmaceutically acceptable alkali metal salt of an HIV integrase inhibitor.
Data set [5] is described as follows: oral bioavailability and pharmacokinetics in rats. It counts as in vivo. The note with it: relative to amorphous and crystalline Compound A.

As for `O=C(NCc1ccc(F)cc1)c1nc(N2CCCCS2(=O)=O)c2cccnc2c1O` [Compound A, 5-(1,1-dioxido-1,2-thiazinan-2-yl)-N-(4-fluorobenzyl)-8-hydroxy-1,6-naphthyridine-7-carboxamide], the “inhibition of acute HIV infection of T-lymphoid cells” value in data set [1] was “active”. Further, the “inhibition of integrase strand transfer” value in data set [2] was “potent inhibitor”.

On to `O=C(NCc1ccc(F)cc1)c1nc(N2CCCCS2(=O)=O)c2cccnc2c1[O-].[Na+]` [crystalline sodium salt of Compound A, Sodium salt of 5-(1,1-Dioxido-1,2-thiazinan-2-yl)-N-(4-fluorobenzyl)-8-hydroxy-1,6-naphthyridine-7-carboxamide], for which, in data set [3], the oral bioavailability entry is recorded as “superior oral bioavailability”; the “pharmacokinetics (e.g., Cmax and AUC)” value was “improved pharmacokinetics”. Further, in data set [4], the oral absorption entry is reported as “superior oral absorption” and the pharmacokinetics result was “improved pharmacokinetics”. In data set [5], the oral bioavailability entry was “superior oral bioavailability”; the “pharmacokinetics (e.g., Cmax and AUC)” value is “improved pharmacokinetics”.
